Results from ChEMBL document CHEMBL1131553, “Orally active indole N-oxide PDE4 inhibitors” (Bioorg Med Chem Lett, 1998).

How the values were obtained:
[1] = system: Mus musculus; experiment: In vivo inhibition of LPS induced tumor necrosis factor (TNF-alpha) in mice at 50 mg/kg; type: functional
[2] = target: T1, Phosphodiesterase 4 (Homo sapiens, UniProt P27815+Q08499+Q07343+Q08493); experiment: Inhibition of phosphodiesterase type IV (PDE4) activity; type: protein assay
[3] = target: T1, Phosphodiesterase 4; type: protein assay
[4] = system: Mus musculus; experiment: In vivo inhibition of LPS induced tumor necrosis factor (TNF-alpha) in mice at 10 mg/kg; type: functional
[5] = system: Mus musculus; experiment: In vivo inhibition of LPS induced tumor necrosis factor (TNF-alpha) in mice; type: functional
[6] = system: Canis familiaris; experiment: Emetic effect in dogs on intravenous dose (3/4); type: functional; details: Canis lupus familiaris
[7] = Time taken to reach maximum concentration in plasma upon oral administration in mouse; type: ADME, organism-based
[8] = Half-life by oral administration in mouse; type: ADME, organism-based; details: in vivo
[9] = Half-life by iv administration in mouse; type: ADME, organism-based; details: in vivo
[10] = Area under curve by ioral administration in mouse; type: ADME, organism-based; details: in vivo, po
[11] = Value distribution upon iv administration in mouse; type: ADME, organism-based; details: in vivo, read-out: Vdss
[12] = system: Canis familiaris; experiment: Emetic effect in dogs on intravenous dose (0/4); type: functional; details: Canis lupus familiaris
[13] = Plasma clearance value upon iv administration in mouse; type: ADME, organism-based
[14] = Maximum concentration in plasma upon oral administration in mouse; type: ADME, organism-based; details: read-out: Cp max
[15] = Oral bioavailability in mouse; type: ADME, organism-based; details: in vivo
[16] = Area under curve by iv administration in mouse; type: ADME, organism-based; details: in vivo
[17] = system: Rattus norvegicus; experiment: Inhibition of streptococcal cell wall-washed arthritis model in rats at 3.0 mg/kg peroral dose; type: functional; details: route oral
[18] = system: Rattus norvegicus; experiment: Percentage change in body weight of rats in streptococcal cell wall-washed arthritis model at 3.0 mg/kg peroral dose; type: functional; details: route oral
[19] = system: Rattus norvegicus; experiment: Streptococcal cell wall-washed arthritis model in rats at 3.0 mg/kg peroral dose; type: functional; details: route oral
[20] = system: Rattus norvegicus; experiment: Streptococcal cell wall-washed arthritis model in rats at 30.0 mg/kg peroral dose; type: functional; details: route oral
[21] = system: Rattus norvegicus; experiment: Inhibition of streptococcal cell wall-washed arthritis model in rats at 10.0 mg/kg peroral dose; type: functional; details: route oral
[22] = system: Rattus norvegicus; experiment: Percentage change in body weight of rats in streptococcal cell wall-washed arthritis model at 10.0 mg/kg peroral dose; type: functional; details: route oral
[23] = system: Rattus norvegicus; experiment: Inhibition of streptococcal cell wall-washed arthritis model in rats at 30.0 mg/kg peroral dose; type: functional; details: route oral
[24] = system: Rattus norvegicus; experiment: Percentage change in body weight of rats in streptococcal cell wall-washed arthritis model at 30.0 mg/kg peroral dose; type: functional; details: route oral
[25] = system: Rattus norvegicus; experiment: Streptococcal cell wall-washed arthritis model in rats at 10.0 mg/kg peroral dose; type: functional; details: route oral
[26] = system: Canis familiaris; experiment: Emetic effect in dogs on intravenous dose (4/4); type: functional; details: Canis lupus familiaris
[27] = system: Canis familiaris; experiment: Emetic effect in dogs on intravenous dose (2/2); type: functional; details: Canis lupus familiaris

SMILES	inhibition in vivo at 50 mg/kg [1] [%]	IC50 [2] [nM]	Ki [3] [nM]	also measured
Cc1cn(Cc2ccc(S(C)(=O)=O)cc2)c2cc(C(=O)Nc3c(Cl)c[n+]([O-])cc3Cl)ccc12	38	260	1124	
Cc1cn(CCCc2ccccc2)c2cc(C(=O)Nc3c(Cl)c[n+]([O-])cc3Cl)ccc12	34	7	30	
Cc1cn(Cc2ccc(C(=O)O)cc2)c2cc(C(=O)Nc3c(Cl)c[n+]([O-])cc3Cl)ccc12		1400	3184	
Cc1cn(C2CCCCC2)c2cc(C(=O)Nc3c(Cl)c[n+]([O-])cc3Cl)ccc12		19	38	
Cc1cn(CC2CCCCCC2)c2cc(C(=O)Nc3c(Cl)c[n+]([O-])cc3Cl)ccc12		20	30	inhibition in vivo at 10 mg/kg [4]: 8%
Cc1cn(CCC2CCCCC2)c2cc(C(=O)Nc3c(Cl)c[n+]([O-])cc3Cl)ccc12		4.1	12	ED50 [5]: 7.4 mg/kg; ED50 [6]: 1 mg/kg
Cc1cn(Cc2ccccc2)c2cc(C(=O)Nc3c(Cl)c[n+]([O-])cc3Cl)ccc12		8	60	Tmax [7]: 0.25 h; half-life [8]: 3.7 h; half-life [9]: 5.1 h; AUC [10]: 669 ng·h/mL; Vd [11]: 0.9 L/kg; ED50 [12]: 3 mg/kg; clearance [13]: 8.33 mL/min/kg; ED50 [5]: 20 mg/kg; Cmax [14]: 393 ng/mL; bioavailability [15]: 33%; AUC [16]: 2020 ng·h/mL
Cc1cn(Cc2ccc3c(c2)OCO3)c2cc(C(=O)Nc3c(Cl)c[n+]([O-])cc3Cl)ccc12	40	24	86	
Cc1cn(CC(C)C)c2cc(C(=O)Nc3c(Cl)c[n+]([O-])cc3Cl)ccc12		38	116	inhibition in vivo at 10 mg/kg [4]: 0%
Cc1cn(Cc2ccc(Cl)cc2)c2cc(C(=O)Nc3c(Cl)c[n+]([O-])cc3Cl)ccc12	10	12	71	
Cc1noc(C)c1Cn1cc(C)c2ccc(C(=O)Nc3c(Cl)c[n+]([O-])cc3Cl)cc21	40	500	225	
Cc1cn(CCCCc2ccccc2)c2cc(C(=O)Nc3c(Cl)c[n+]([O-])cc3Cl)ccc12		46	135	inhibition in vivo at 10 mg/kg [4]: 53%
Cc1cn(CC2CCCCC2)c2cc(C(=O)Nc3c(Cl)cncc3Cl)ccc12	0			
Cc1cn(Cc2ccccc2)c2cc(C(=O)Nc3c(Cl)cncc3Cl)ccc12	0			
Cc1cn(CC2CCCCC2)c2cc(C(=O)Nc3c(Cl)c[n+]([O-])cc3Cl)ccc12		30	86	inhibition in vivo at 3 mg/kg [17]: 25%; Change [18]: -5%; Tmax [7]: 1 h; half-life [8]: 2.5 h; half-life [9]: 3.6 h; Mean AUC [19]: 3.7; Mean AUC [20]: 1.1; AUC [10]: 3140 ng·h/mL; inhibition in vivo at 10 mg/kg [21]: 33%; Vd [11]: 1.7 L/kg; ED50 [12]: > 0.8 mg/kg; clearance [13]: 5 mL/min/kg; Change [22]: -7%; inhibition in vivo at 30 mg/kg [23]: 77%; ED50 [5]: 7.1 mg/kg; Cmax [14]: 439 ng/mL; Change [24]: -13%; bioavailability [15]: 96%; Mean AUC [25]: 3.3; AUC [16]: 3260 ng·h/mL
Cc1cn(Cc2nccn2Cc2ccccc2)c2cc(C(=O)Nc3c(Cl)c[n+]([O-])cc3Cl)ccc12	38	420	393	
Cc1nc(Cn2cc(C)c3ccc(C(=O)Nc4c(Cl)c[n+]([O-])cc4Cl)cc32)cs1	52	80	64	
Cc1cn(Cc2ccc3ccccc3c2)c2cc(C(=O)Nc3c(Cl)c[n+]([O-])cc3Cl)ccc12		22	51	
Cc1cn(CCCC2CCCCC2)c2cc(C(=O)Nc3c(Cl)c[n+]([O-])cc3Cl)ccc12	47	16	67	
Cc1cn(Cc2ccc(C(F)(F)F)cc2)c2cc(C(=O)Nc3c(Cl)c[n+]([O-])cc3Cl)ccc12		14	67	ED50 [5]: 10 mg/kg
COc1ccc(C(=O)Nc2c(Cl)cncc2Cl)cc1OC1CCCC1				ED50 [26]: 0.6 mg/kg; ED50 [5]: 3.1 mg/kg
COc1ccc(C2CNC(=O)C2)cc1OC1CCCC1 (configuration not stated) [ROLIPRAM]				ED50 [5]: 8.2 mg/kg; ED50 [27]: 0.03 mg/kg
